Legend:
[1] = tested on: lateral root clock (pDR5:LUC); assay: Lateral root clock oscillation amplitude (pDR5:LUC reporter); type: in vivo, Arabidopsis thaliana; conditions: for amplitude of the lateral root clock relative to D15 treatment (rescue of D15 inhibition of lateral root initiation): roots treated with D15 for several days, then 10 μM apocarotenoid added, FIG. 4A
Arabidopsis thaliana = assay: Root phenotyping: primary root growth, lateral root capacity/branching, lateral root primordia; type: in vivo
Arabidopsis roots = assay: Merocyanine aldehyde RBP reporter fluorescence in Arabidopsis roots; type: in vivo, Arabidopsis thaliana; conditions: D15 treatment
Arabidopsis tissue = assay: Extraction, derivatization and HPLC-MS analysis of apocarotenoid levels in plant tissue upon D15 treatment; type: in vivo, Arabidopsis thaliana; conditions: D15 treated plants, whole plant; FIG. 2B
CCD8 = biological target: T1, CCD8 (Arabidopsis thaliana, UniProt Q8VY26); conditions: stated as known; cited from earlier work
T1 sequence (Q8VY26 57-570): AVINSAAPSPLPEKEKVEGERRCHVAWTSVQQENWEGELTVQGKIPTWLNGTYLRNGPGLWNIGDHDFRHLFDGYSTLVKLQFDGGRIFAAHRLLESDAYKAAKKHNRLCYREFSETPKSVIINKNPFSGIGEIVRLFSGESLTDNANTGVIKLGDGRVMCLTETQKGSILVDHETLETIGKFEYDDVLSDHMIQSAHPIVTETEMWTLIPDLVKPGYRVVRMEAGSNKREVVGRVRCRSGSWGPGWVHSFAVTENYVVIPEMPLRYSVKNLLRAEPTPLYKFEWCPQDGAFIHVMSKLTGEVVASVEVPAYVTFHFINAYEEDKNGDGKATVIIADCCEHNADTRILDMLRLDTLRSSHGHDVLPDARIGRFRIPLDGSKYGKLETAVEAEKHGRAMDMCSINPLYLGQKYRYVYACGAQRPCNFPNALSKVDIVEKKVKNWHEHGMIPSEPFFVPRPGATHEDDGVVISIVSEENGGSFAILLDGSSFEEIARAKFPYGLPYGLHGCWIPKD

[2] = co-treatment with 500 nM Apo14 and D15, FIG. 4B
[3] = co-treatment with 1 μM retinal and 125 μM D15, FIG. 4C

## CC1=C(/C=C/C(C)=C/C=C/C(C)=C/C=C/C=O)C(C)(C)CCC1 [Apo14, apo-14-carotenal]
[1]
  amplitude of the lateral root clock relative to D15 treatment (rescue of D15 inhibition of lateral root initiation): significantly increased
Arabidopsis thaliana; [2]
  rescue of D15 inhibition of lateral root development (lateral root capacity): fully rescue
  rescue of D15 inhibition of primary root growth: fully rescue

## CC1=C(/C=C/C(C)=C/C=C/C(C)=C/C=C/C=C(C)/C=C/C=O)C(C)(C)CCC1 [Apo-10-carotenal, apo-10-carotenal]
[1]
  amplitude of the lateral root clock relative to D15 treatment (rescue of D15 inhibition of lateral root initiation): partially rescue

## CC1=C(/C=C/C(C)=C/C=C/C(C)=C/C=C/C=C(\C)C=O)C(C)(C)CCC1 [apo-12-carotenal]
[1]
  amplitude of the lateral root clock relative to D15 treatment (rescue of D15 inhibition of lateral root initiation): partially rescue

## CC1=C(/C=C/C(C)=C/C=C/C(C)=C/C=O)C(C)(C)CCC1 [retinal, apo-16-carotenal]
[1]
  amplitude of the lateral root clock relative to D15 treatment (rescue of D15 inhibition of lateral root initiation): significantly increased
Arabidopsis thaliana; [3]
  rescue of D15 inhibition of lateral root development (lateral root branching): fully rescue
  rescue of D15 inhibition of primary root growth: fully rescue
Arabidopsis thaliana; retinal alone, absence of D15
  primary root length: did not affect
Arabidopsis thaliana; retinal alone, absence of D15, FIG. 4D
  number of lateral root primordia: significantly increase

## N-(4-fluorobenzyl)-methoxycinnamic hydroxamic acid [D15]
Arabidopsis roots
  merocyanine aldehyde fluorescence in the root meristem: reduced
Arabidopsis roots; elongation and differentiation zones, FIG. 1E
  number of merocyanine aldehyde pulses: significantly reduced
Arabidopsis tissue
  levels of more hydrophilic apocarotenoids such as beta-cyclocitral and beta-ionone: did not affect
  levels of retinal as well as the related apocarotenoids: reduced
[1]; D15-treated plants, FIG. 3
  amplitude of oscillations in pDR5:LUC marker line: significantly decreased
Arabidopsis thaliana; D15 treatment
  root growth and lateral root organogenesis: defects
CCD8
  CCD8 inhibition: can inhibit

Reference: patent US12144344B2, “Compositions and methods for modulating root growth” (DUKE UNIVERSITY, priority 2018, dated 2024)
